{
  "source": "paper PMC8945229",
  "about": "“Development and Biological Characterization of a Novel Selective TrkA Agonist with Neuroprotective Properties against Amyloid Toxicity” (Biomedicines, 2022)",
  "key": {"[1]": {"tested_on": "CYP1A2, CYP2A6, CYP2B6, CYP2C9, CYP2C19, CYP2D6 and CYP3A4", "test": "CYP450 catalytic and metabolic activity, seven isoforms", "assay_type": "in vitro ADME, human", "conditions": "1 μM", "procedure": "Baculosomes® expressing CYP1A2, CYP2A6, CYP2B6, CYP2C9, CYP2C19, CYP2D6 and CYP3A4 human CYP450 isoenzymes were purchased from Thermo Fisher Scientific (Waltham, MA, USA). All reagents were handled and prepared according to the manufacturer’s protocol. ENT-A013 was tested at 1 μM. Enzymatic activity in the presence of ΕΝΤ-A013 was assessed based on the kinetic model for CYP1A2, CYP2A6, CYP2B6, CYP2C9, CYP2C19, CYP2D6 and CYP3A4 isoforms. Reactions took place in triplicates at 20 °C. Glucose-6-phosphate at 333 mM and glucose-6-phosphate-dehydrogenase at 30 U/mL in 100 mM potassium phosphate, pH 8.0 (regeneration system) converted NADP^+ (10 mM in 100 mM potassium phosphate, pH 8.0) into NADPH to initiate the CYP450 reaction. Upon the addition of the fluorescent substrate, immediately (<2 min), the fluorescence signal was monitored over time at suitable excitation and emission wavelengths by Lionheart FX (BioTek, Winooski, VT, USA) (Table S2). CYP450 inhibition (%) was determined based on the reaction rates (fluorescence intensity changes per unit time). A total of n = 60 measurements per minute were acquired for a total time of t = 60 min. % Inhibition= (1 − X/A) × 100%(1) where: X is the rate observed in the presence of test-compound; A is the rate observed in the presence of negative (solvent, DMSO) control."}, "Akt": {"tested_on": "Akt", "test": "Akt phosphorylation in PC12 cells (Western blot)", "assay_type": "cell-based", "design": "unit not given here", "conditions": "500 nM, 30′", "procedure": "For immunoprecipitation experiments PC12 or HEK293T, cells were used when at 70–80% confluent. Cells were starved of serum for 4 h and subsequently treated with 100 ng/mL NGF or 500 nM of compound ENT-A013 for 30′. Cells were then lysed in Pierce™ IP Lysis Buffer (87788, Thermo Fischer Scientific, Waltham, MA, USA) containing proteases (539138, Calbiochem, Darmstadt, Germany) and phosphatase inhibitors (524629, Calbiochem, Darmstadt, Germany). Lysates were then immunoprecipitated overnight at 4 °C with TrkA antibody (1:100, 06-574, Sigma-Aldrich, St. Louis, MO, USA) (Table S1) or p75^NTR antibody (1:100, ab6172, Abcam plc., Cambridge, UK) followed by 4 h incubation with protein G-plus agarose beads (sc-2002, Santa Cruz Biotechnology, Inc., Dallas, TX, USA). Beads were then collected, washed 3X with lysis buffer, resuspended in SDS loading buffer and subjected to Western blot against phosphorylated Tyrosine (1:1000, BAM1676, R&D Systems, Inc., Minneapolis, MN, USA) or Traf6 antibody (1:2000, ab33915, Abcam, plc., Cambridge, UK). […]"}, "[2]": {"tested_on": "Primary Dorsal Root Ganglia (DRG) neurons", "test": "TUNEL assay in primary DRG neurons upon NGF withdrawal", "assay_type": "cell-based, mouse", "conditions": "500 nM every 24 h, 48 h, NGF-neutralizing antibody", "procedure": "Primary Dorsal Root Ganglia (DRG) neurons were isolated from P0-P1 mouse pups (C57BL/6J, The Jackson Laboratory, Bar Harbor, ME, USA) as described previously and cultured with Neurobasal medium (21103049 Gibco, Grand Island, NY, USA) containing 2% B27 (17504044, Gibco, Grand Island, NY, USA), 100 ng/mL NGF (N-100, Alomone Labs, Jerusalem, Israel), 1X GlutaMax (35050061, Gibco, Grand Island, NY, USA), 10 mM HEPES (15630080, Gibco, Grand Island, NY, USA), 1% Penicillin/Streptomycin (15070063, Gibco, Grand Island, NY, USA) and 10 μM 5-Fluoro-2′-deoxyuridine (343333, Calbiochem, Darmstadt, Germany). For TUNEL assay, cells were cultured for 14 days in vitro and then the medium was deprived of NGF before adding ENT-A013 (500 nM, every 24 h) along with NGF-neutralizing antibody (N8773, 1:500, Sigma-Aldrich, St. Louis, MO, USA). Cells were then incubated for 48 h before being fixed with 4% PFA and labelled with TUNEL (11684795910, F. Hoffmann–La Roche Ltd., Basel, Switzerland) following the manufacturer’s protocol. Subsequently, cells were immunostained against Tuj1 (1:2000, 801201, Biolegend, Inc., San Diego, CA, USA) and anti-mouse Cy3 (1:1000, Invitrogen, A10521, Waltham, MA, USA) and imaged with a Leica SP8 confocal microscope. […] Cells were then imaged by confocal microscopy and neurite length was measured using Fiji software (NIH, Bethesda, Maryland, USA)."}},
  "data": [
    {"compound": "CC12CCC(O)CC1=CCC1C2CCC2(C)C1CCC21CC1C=CBr", "note": "[ENT-A013, (2′R,3S,17S)-2′-(2-Bromovinyl)-5-Androstene-17,1′-Cyclopropan-3-ol]", "values": [
      {"measurement": "enzyme (catalytic) activity of the seven major CYP450s", "setting": "[1]; relative fluorescence of product", "result": "did not decrease the enzyme (catalytic) activity"},
      {"measurement": "CYP450 (%) metabolic activity, residual % of time zero (in words)", "setting": "[1]; t = 0 to t = 60 min", "result": "overall metabolically stable"},
      {"measurement": "Akt phosphorylation", "setting": "Akt", "result": "3.8 ± 1.15"},
      {"measurement": "NGF deprivation-induced apoptosis (TUNEL, in words)", "setting": "[2]", "result": "significantly reverse the NGF deprivation-induced apoptosis"}
    ]}
  ]
}
